{"source": "patent US5360613A", "about": "“Method of reducing blood levels of total cholesterol and low-density lipoprotein cholesterol” (Iowa State University Research Foundation, Inc., priority 1993, dated 1994)", "key": {"aorta": {"test_system": "aorta", "test": "Pig feeding study, aorta streaking (pre-atherosclerotic lesions) (Example III, Table C)", "format": "in vivo, pigs", "conditions": "for Aorta Streaking: 0 least severe to 3.2 most severe, control 1.87", "procedure": "A further large mammal study was carried out with pigs. Pigs comprise test animals which are more similar in certain respects to humans than ruminants.\nControl: 60 g. of calcium\nThe pigs were housed in pens of two animals each and were allowed ad libitum access to food and water. Pigs were approximately 160 lbs. at the start of the experiment and were 240 lbs. at the end. All pigs were castrate males. At day 28 and day 43 of the experiment blood was collected from the anterior vena cava by venipuncture. Blood was collected into EDTA containing tubes, centrifuged and frozen until analyzed. At approximately 100 days of the experiment half of the animals (32) were slaughtered, and at 120 days the remaining 32 animals were slaughtered. At the time of slaughter the abdominal aorta was dissected out and external fat removed. The aorta was then split lengthwise and 1/2 fixed in formaldehyde for 48 hours. At this time aortas were removed, stretched over a 6 inch stick, washed in ethanol and stained with a lipid stain for 2 hours. After a 1 hour wash aortas were blotted and examined. All the aortas from a group were laid out on a white bench and arranged in order from least sever to most sever. The least sever had no dark red streaks on the aorta or around the small vertebral vessels leaving the aorta. The most sever lesions had multiple streaks in the middle of the aorta and dark red deposits in turbulent areas such as the branching of vessels from the aorta. The ordered aortas were then assigned a consecutive decimal number. The first (least severe) was assigned 0 and the most severe was assigned 3.2 Plasma cholesterol and triglycerides were measured by an enzyme-colorimetric assay (Sigma).\nstatistical analysis was accomplished by the general linear model procedure of the Statistical Analysis System (SAS). The model included the main effects of treatment and pen number. T-tests were conducted from the ANOVA standard error, to compare the HMB treatments to the control. […] It appeared that HMB can partially prevent the formation of pre-atherosclerotic lesions. No effect of KIC was noted relative to any parameter."}, "blood cholesterol [1]": {"test_system": "blood cholesterol", "test": "Controlled double-blind human study, blood cholesterol (Example IV, Table D)", "format": "in vivo, humans", "procedure": "(§1) In view of the findings of the foregoing examples, a human study was carried out.\n(§2) In a controlled double-blind study, the effects of feeding HMB on loss of urinary nitrogen, blood cholesterol and immune function in normal humans were tested. This study also measured blood components that reflect liver, kidney and tissue metabolism. In addition further measurements of nitrogen metabolism and immune function were implemented. All measurements were made in a controlled dietary situation and under blinded conditions. Normal male subjects were used who had been screened for normalcy. Ca-HMB was administered in 250 mg capsules. The subjects were instructed to take the capsules in 4 equal doses daily (with meals and at bed time). The subject ate all their meals under controlled conditions. Normal diets were used, and the amount of the diets was controlled to maintain equal and substantially constant nitrogen intake. The subjects had blood drawn before the morning meal or before they took the morning HMB dose. Each subject was studied twice: once with a placebo and once with HMB."}, "[2]": {"test": "Controlled double-blind human study, body weight, body fat and resting metabolic rate (Example IV, Table D)", "format": "in vivo, humans", "procedure": "as §1, §2"}, "blood cholesterol [3]": {"test_system": "blood cholesterol", "test": "Human dose-response study, blood cholesterol, triglycerides and glucose (Example V, Table E)", "format": "in vivo, humans", "procedure": "(§3) Higher dose levels than in Example IV of Ca-HMB were tested in humans. The objective was to obtain an indication of whether higher doses could be safely administered, and also whether higher doses might provide a greater reduction in total cholesterol and LDL cholesterol.\n(§4) Normal humans were used in the study. Ca-HMB was administered in 250 mg capsules, and the subjects were instructed to take the capsules in 4 equal doses daily. No control of diet was attempted except they were instructed to eat as they normally would. On alternate days the subjects had blood drawn before the morning meal and before they took the morning HMB dose. Four subjects were studied for dose level of 05., 1, 2 and 4 grams per day.\n(§5) Results from all samples of each subject were subjected to linear regression and the slope and intercept used to calculate the % change in concentration after 8 days on treatment. The percentage changes were then subjected to ANOVA-regression to determine if there was a linear effect of dosage on the parameter. The dose-response effect (p<) is listed in the linear effect column of Table E."}, "[4]": {"test": "Human dose-response study, body weight and body fat (Example V, Table E)", "format": "in vivo, humans", "conditions": "study combined with Example IV", "procedure": "as §3, §4, §5"}, "[5]": {"test": "Human dose-response study, blood HMB (Example V)", "format": "in vivo, humans", "procedure": "as §3, §4"}, "[6]": {"test_system": "acetate incorporation into cholesterol", "conditions": "added to the media at very high concentrations; cited from earlier work"}, "[7]": {"conditions": "HMB change net of placebo-group change"}, "[8]": {"conditions": "4 grams per day, end of the one week study"}}}
{"smiles": "CC(C)(O)CC(=O)O", "note": "[HMB, β-hydroxy-β-methylbutyric acid]", "values": [{"measurement": "deposits of fat in the aorta", "setting": "aorta; HMB-fed pigs", "result": "lower deposits of fat in the aorta"}, {"measurement": "Aorta Streaking", "setting": "aorta; dietary .01%, HMB C vs. .01% p .12", "result": 1.23}, {"measurement": "Aorta Streaking", "setting": "aorta; dietary .05%, HMB p .06, KIC ns", "result": 1.18}, {"measurement": "increase of HDL cholesterol", "setting": "blood cholesterol [1]; 2 g of HMB daily for two weeks", "result": 11, "unit": "%"}, {"measurement": "reduction of LDL cholesterol", "setting": "blood cholesterol [1]; 2 g of HMB daily for two weeks", "result": 10, "unit": "%"}, {"measurement": "reduction of total cholesterol", "setting": "blood cholesterol [1]; 2 g of HMB daily for two weeks", "result": 6, "unit": "%"}, {"measurement": "% Net Effect HMB, HDL Cholesterol", "setting": "blood cholesterol [1]; [7]", "result": 11, "unit": "%"}, {"measurement": "% Net Effect HMB, LDL Cholesterol", "setting": "blood cholesterol [1]; [7]", "result": -10, "unit": "%"}, {"measurement": "% Net Effect HMB, LDL/HDL", "setting": "blood cholesterol [1]; [7]", "result": -25, "unit": "%"}, {"measurement": "% Net Effect HMB, Total Cholesterol", "setting": "blood cholesterol [1]; [7]", "result": -6, "unit": "%"}, {"measurement": "% Change Trt. HDL Cholesterol", "setting": "blood cholesterol [1]; control to HMB treatment", "result": 3, "unit": "%"}, {"measurement": "% Change Trt. LDL Cholesterol", "setting": "blood cholesterol [1]; control to HMB treatment", "result": -8, "unit": "%"}, {"measurement": "% Change Trt. LDL/HDL", "setting": "blood cholesterol [1]; control to HMB treatment", "result": -12, "unit": "%"}, {"measurement": "% Change Trt. Total Cholesterol", "setting": "blood cholesterol [1]; control to HMB treatment", "result": -10, "unit": "%"}, {"measurement": "decrease of ratio of LDL to HDL", "setting": "blood cholesterol [1]; in two weeks", "result": 25, "unit": "%"}, {"measurement": "LDL cholesterol", "setting": "blood cholesterol [1]; treated group on HMB, Ca HMB 1.0 grams/24 hours, calculated, pre-treatment control 118", "result": 107}, {"measurement": "LDL/HDL", "setting": "blood cholesterol [1]; treated group on HMB, Ca HMB 1.0 grams/24 hours, pre-treatment control 2.38", "result": 2.10}, {"measurement": "HDL cholesterol", "setting": "blood cholesterol [1]; treated group on HMB, Ca HMB 1.0 grams/24 hours, pre-treatment control 49.5", "result": 50.9}, {"measurement": "Total cholesterol", "setting": "blood cholesterol [1]; treated group on HMB, Ca HMB 1.0 grams/24 hours, pre-treatment control 187", "result": 169}, {"measurement": "% Net Effect HMB, % Body fat", "setting": "[2]; [7]", "result": -9, "unit": "%"}, {"measurement": "% Net Effect HMB, Resting metabolic rate", "setting": "[2]; [7]", "result": 0, "unit": "%"}, {"measurement": "% Net Effect HMB, Weight", "setting": "[2]; [7]", "result": 1.4, "unit": "%"}, {"measurement": "Body weight", "setting": "[2]; HMB treatment", "result": "did not change"}, {"measurement": "body fat", "setting": "[2]; HMB treatment", "result": "did not change"}, {"measurement": "resting metabolic rate", "setting": "[2]; HMB treatment", "result": "did not change"}, {"measurement": "% Change Trt. % Body fat", "setting": "[2]; control to HMB treatment", "result": -12, "unit": "%"}, {"measurement": "% Change Trt. Resting metabolic rate", "setting": "[2]; control to HMB treatment", "result": 4, "unit": "%"}, {"measurement": "% Change Trt. Weight", "setting": "[2]; control to HMB treatment", "result": 1.4, "unit": "%"}, {"measurement": "% Body fat (skin fold)", "setting": "[2]; treated group on HMB, Ca HMB 1.0 grams/24 hours, pre-treatment control 12.5", "result": 11.0, "unit": "%"}, {"measurement": "resting metabolic rate", "setting": "[2]; treated group on HMB, Ca HMB 1.0 grams/24 hours, pre-treatment control 74.8", "result": 77.8, "unit": "KCal/mw"}, {"measurement": "Weight", "setting": "[2]; treated group on HMB, Ca HMB 1.0 grams/24 hours, pre-treatment control 176", "result": 179, "unit": "lbs."}, {"measurement": "cholesterol", "setting": "blood cholesterol [3]; 2 grams daily", "result": "appeared to decrease cholesterol"}, {"measurement": "decrease of LDL cholesterol", "setting": "blood cholesterol [3]; [8]", "result": "about 6%"}, {"measurement": "decrease of total cholesterol", "setting": "blood cholesterol [3]; [8]", "result": "about 6%"}, {"measurement": "cholesterol", "setting": "blood cholesterol [3]; doses lower than 2 grams daily", "result": "no effect was clearly observable"}, {"measurement": "blood cholesterol", "setting": "blood cholesterol [3]; over the course of the week", "result": "decreased in a dose-responsive manner"}, {"measurement": "effect on body fat", "setting": "[4]", "result": "extremely suggestive of an effect on body fat"}, {"measurement": "Blood HMB", "setting": "[5]; 0.5 to 4 g per day", "result": "increased in a dose-responsive manner"}, {"measurement": "increase in blood HMB", "setting": "[5]; 4 grams per day", "result": "very large increase"}, {"measurement": "inhibition of acetate incorporation", "setting": "[6]", "result": "no significant inhibition"}]}
